Test results published in US11524968B2, “Heterocyclic compound as a protein kinase inhibitor” (HK inno.N Corporation, priority 2017, dated 2022).

Molecular target: JAK1 (Homo sapiens (Human), UniProt P23458)
Experiment: Analysis of JAK1 activity inhibition ability (ADP-Glo Kinase Assay)
Assay type: biochemical
Settings: JAK1 enzyme, ADP-Glo luminescence, ATP 250 uM, IRS-itide substrate, 30° C. 40 minutes; read-out: IC50
How it was run: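 JAK1 enzyme, IRS-itide substrate (40 ng/mL) and 250 uM ATP, both as prepared in kinase buffer (Tris-HCl pH 7.5, MgCl2, BSA, DTT), reacted with compound 40 min at 30 °C. ADP formed was detected by ADP-Glo luminescence; IC50 is the concentration giving 50% inhibition versus control.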

JAK1, sequence (P23458 whole entry): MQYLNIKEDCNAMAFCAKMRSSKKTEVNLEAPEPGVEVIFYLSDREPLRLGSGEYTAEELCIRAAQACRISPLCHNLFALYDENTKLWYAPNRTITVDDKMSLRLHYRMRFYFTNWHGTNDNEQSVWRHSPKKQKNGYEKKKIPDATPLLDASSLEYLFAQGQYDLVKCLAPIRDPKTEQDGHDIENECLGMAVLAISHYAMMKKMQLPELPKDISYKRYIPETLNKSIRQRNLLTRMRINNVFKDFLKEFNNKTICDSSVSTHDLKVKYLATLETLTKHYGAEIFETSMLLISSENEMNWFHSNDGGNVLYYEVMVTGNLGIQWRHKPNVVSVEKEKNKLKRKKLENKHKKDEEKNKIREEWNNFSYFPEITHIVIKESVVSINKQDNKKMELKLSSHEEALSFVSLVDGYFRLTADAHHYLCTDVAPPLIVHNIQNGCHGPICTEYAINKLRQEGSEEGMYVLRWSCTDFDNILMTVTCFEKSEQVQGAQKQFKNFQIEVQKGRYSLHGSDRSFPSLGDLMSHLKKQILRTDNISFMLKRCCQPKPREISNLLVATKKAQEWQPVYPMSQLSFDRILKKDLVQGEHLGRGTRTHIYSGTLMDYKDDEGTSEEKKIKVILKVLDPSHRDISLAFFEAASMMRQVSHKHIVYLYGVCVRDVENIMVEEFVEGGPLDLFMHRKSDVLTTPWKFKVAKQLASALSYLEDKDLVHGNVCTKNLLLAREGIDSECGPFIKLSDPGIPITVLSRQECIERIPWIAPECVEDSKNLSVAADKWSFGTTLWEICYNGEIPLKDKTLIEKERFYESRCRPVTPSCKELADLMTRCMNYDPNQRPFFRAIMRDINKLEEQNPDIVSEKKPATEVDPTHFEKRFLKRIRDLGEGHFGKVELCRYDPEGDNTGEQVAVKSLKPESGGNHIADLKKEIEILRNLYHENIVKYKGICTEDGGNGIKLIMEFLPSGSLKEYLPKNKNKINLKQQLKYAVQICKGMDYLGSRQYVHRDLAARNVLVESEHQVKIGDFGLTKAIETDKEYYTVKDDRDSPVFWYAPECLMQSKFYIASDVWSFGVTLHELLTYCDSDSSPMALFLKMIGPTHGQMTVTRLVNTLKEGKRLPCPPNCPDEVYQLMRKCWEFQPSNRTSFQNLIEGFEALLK

| IC50 [µM] | Structure (SMILES) |
| --- | --- |
| 0.02 to 0.2 | CC1CN(C(=O)C(C#N)Cc2ccccc2)CC=C1c1cc(NC(=O)C2CC2)nc2[nH]ccc12 (stereo not drawn) [Example 360, N-(4-(1-(2-cyano-3-phenylpropanoyl)-3-methyl-1,2,3,6-tetrahydropyridin-4-yl)-1H-pyrrolo[2,3-b]pyridin-6-yl)cyclopropanecarboxamide] |
| 0.02 to 0.2 | CC1CN(C(=O)C2(C#N)CCCC2)CC=C1c1cc(NC(=O)C2CC2)nc2[nH]ccc12 (stereo not drawn) [Example 361, N-(4-(1-(1-cyanocyclopentane-1-carbonyl)-3-methyl-1,2,3,6-tetrahydropyridin-4-yl)-1H-pyrrolo[2,3-b]pyridin-6-yl)cyclopropanecarboxamide] |
| 0.02 to 0.2 | CC1CN(C(=O)CC(=O)N2CCOCC2)CC=C1c1cc(NC(=O)C2CC2)nc2[nH]ccc12 (stereo not drawn) [Example 362, N-(4-(3-methyl-1-(3-morpholino-3-oxopropanoyl)-1,2,3,6-tetrahydropyridin-4-yl)-1H-pyrrolo[2,3-b]pyridin-6-yl)cyclopropanecarboxamide] |
| < 0.02 | CC1CC(c2cc(NC(=O)C3CC3)nc3[nH]ccc23)=CCN1C(=O)CC#N (stereo not drawn) [Example 363, N-(4-(1-(2-cyanoacetyl)-2-methyl-1,2,3,6-tetrahydropyridin-4-yl)-1H-pyrrolo[2,3-b]pyridin-6-yl)cyclopropanecarboxamide] |
| 0.02 to 0.2 | CC1CN(C(=O)Cc2ccccc2)CC=C1c1cc(NC(=O)C2CC2)nc2[nH]ccc12 (stereo not drawn) [Example 365, N-(4-(3-methyl-1-(2-phenylacetyl)-1,2,3,6-tetrahydropyridin-4-yl)-1H-pyrrolo[2,3-b]pyridin-6-yl)cyclopropanecarboxamide] |
| 0.02 to 0.2 | CC1CN(C(=O)c2cc(Cl)nc(Cl)c2)CC=C1c1cc(NC(=O)C2CC2)nc2[nH]ccc12 (stereo not drawn) [Example 372, N-(4-(1-(2,6-dichloroisonicotinoyl)-3-methyl-1,2,3,6-tetrahydropyridin-4-yl)-1H-pyrrolo[2,3-b]pyridin-6-yl)cyclopropanecarboxamide] |
| 0.02 to 0.2 | CC1CN(C(=O)c2c(Cl)cncc2Cl)CC=C1c1cc(NC(=O)C2CC2)nc2[nH]ccc12 (stereo not drawn) [Example 374, N-(4-(1-(3,5-dichloroisonicotinoyl)-3-methyl-1,2,3,6-tetrahydropyridin-4-yl)-1H-pyrrolo[2,3-b]pyridin-6-yl)cyclopropanecarboxamide] |
| 0.02 to 0.2 | Cc1cc(C(=O)N2CC=C(c3cc(NC(=O)C4CC4)nc4[nH]ccc34)C(C)C2)cc(Cl)n1 (stereo not drawn) [Example 375, N-(4-(1-(2-chloro-6-methylisonicotinoyl)-3-methyl-1,2,3,6-tetrahydropyridin-4-yl)-1H-pyrrolo[2,3-b]pyridin-6-yl)cyclopropanecarboxamide] |
| 0.02 to 0.2 | CC1CN(C(=O)c2ccncc2Cl)CC=C1c1cc(NC(=O)C2CC2)nc2[nH]ccc12 (stereo not drawn) [Example 376, N-(4-(1-(3-chloroisonicotinoyl)-3-methyl-1,2,3,6-tetrahydropyridin-4-yl)-1H-pyrrolo[2,3-b]pyridin-6-yl)cyclopropanecarboxamide] |
| > 0.2 | CC1CN(C(=O)c2ccncc2O)CC=C1c1cc(NC(=O)C2CC2)nc2[nH]ccc12 (stereo not drawn) [Example 377, N-(4-(1-(3-hydroxyisonicotinoyl)-3-methyl-1,2,3,6-tetrahydropyridin-4-yl)-1H-pyrrolo[2,3-b]pyridin-6-yl)cyclopropanecarboxamide] |
| < 0.02 | CC1CN(C(=O)c2cccc(F)c2F)CC=C1c1cc(NC(=O)C2CC2)nc2[nH]ccc12 (stereo not drawn) [Example 378, N-(4-(1-(2,3-difluorobenzoyl)-3-methyl-1,2,3,6-tetrahydropyridin-4-yl)-1H-pyrrolo[2,3-b]pyridin-6-yl)cyclopropanecarboxamide] |
| 0.02 to 0.2 | Cc1cc(C(=O)N2CC=C(c3cc(NC(=O)C4CC4)nc4[nH]ccc34)C(C)C2)ccn1 (stereo not drawn) [Example 379, N-(4-(3-methyl-1-(2-methylisonicotinoyl)-1,2,3,6-tetrahydropyridin-4-yl)-1H-pyrrolo[2,3-b]pyridin-6-yl)cyclopropanecarboxamide] |
| 0.02 to 0.2 | COc1ccc(C(=O)N2CC=C(c3cc(NC(=O)C4CC4)nc4[nH]ccc34)C(C)C2)cn1 (stereo not drawn) [Example 380, N-(4-(1-(6-methoxynicotinoyl)-3-methyl-1,2,3,6-tetrahydropyridin-4-yl)-1H-pyrrolo[2,3-b]pyridin-6-yl)cyclopropanecarboxamide] |
| > 0.2 | CC1CN(C(=O)c2ccnc(N)c2)CC=C1c1cc(NC(=O)C2CC2)nc2[nH]ccc12 (stereo not drawn) [Example 381, N-(4-(1-(2-aminoisonicotinoyl)-3-methyl-1,2,3,6-tetrahydropyridin-4-yl)-1H-pyrrolo[2,3-b]pyridin-6-yl)cyclopropanecarboxamide] |
| 0.02 to 0.2 | CC1CN(C(=O)c2ccnc(Br)c2)CC=C1c1cc(NC(=O)C2CC2)nc2[nH]ccc12 (stereo not drawn) [Example 382, N-(4-(1-(2-bromoisonicotinoyl)-3-methyl-1,2,3,6-tetrahydropyridin-4-yl)-1H-pyrrolo[2,3-b]pyridin-6-yl)cyclopropanecarboxamide] |
| > 0.2 | CC1CN(C(=O)c2ccnc(O)c2)CC=C1c1cc(NC(=O)C2CC2)nc2[nH]ccc12 (stereo not drawn) [Example 383, N-(4-(1-(2-hydroxyisonicotinoyl)-3-methyl-1,2,3,6-tetrahydropyridin-4-yl)-1H-pyrrolo[2,3-b]pyridin-6-yl)cyclopropanecarboxamide] |
| 0.02 to 0.2 | CC1CN(C(=O)c2ccnc(C(F)(F)F)c2)CC=C1c1cc(NC(=O)C2CC2)nc2[nH]ccc12 (stereo not drawn) [Example 384, N-(4-(3-methyl-1-(2-(trifluoromethyl)isonicotinoyl)-1,2,3,6-tetrahydropyridin-4-yl)-1H-pyrrolo[2,3-b]pyridin-6-yl)cyclopropanecarboxamide] |
| < 0.02 | CC1(C)CC(c2cc(NC(=O)C3CC3)nc3[nH]ccc23)=CCN1C(=O)c1ccnc(F)c1 [Example 385, N-(4-(1-(2-fluoroisonicotinoyl)-2,2-dimethyl-1,2,3,6-tetrahydropyridin-4-yl)-1H-pyrrolo[2,3-b]pyridin-6-yl)cyclopropanecarboxamide] |
| 0.02 to 0.2 | CC1(C)CC(c2cc(NC(=O)C3CC3)nc3[nH]ccc23)=CCN1C(=O)c1ccnc(Cl)c1 [Example 386, N-(4-(1-(2-chloroisonicotinoyl)-2,2-dimethyl-1,2,3,6-tetrahydropyridin-4-yl)-1H-pyrrolo[2,3-b]pyridin-6-yl)cyclopropanecarboxamide] |
| 0.02 to 0.2 | CC1(C)CC(c2cc(NC(=O)C3CC3)nc3[nH]ccc23)=CCN1C(=O)CC#N [Example 387, N-(4-(1-(2-cyanoacetyl)-2,2-dimethyl-1,2,3,6-tetrahydropyridin-4-yl)-1H-pyrrolo[2,3-b]pyridin-6-yl)cyclopropanecarboxamide] |
| < 0.02 | C[C@@H]1C=C(c2cc(NC(=O)C3CC3)nc3[nH]ccc23)CCN1C(=O)CC#N [Example 388, (R)—N-(4-(1-(2-cyanoacetyl)-6-methyl-1,2,3,6-tetrahydropyridin-4-yl)-1H-pyrrolo[2,3-b]pyridin-6-yl)cyclopropanecarboxamide] |
| < 0.02 | C[C@@H]1CC(c2cc(NC(=O)C3CC3)nc3[nH]ccc23)=CCN1C(=O)CC#N [Example 389, (R)—N-(4-(1-(2-cyanoacetyl)-2-methyl-1,2,3,6-tetrahydropyridin-4-yl)-1H-pyrrolo[2,3-b]pyridin-6-yl)cyclopropanecarboxamide] |
| < 0.02 | C[C@H]1C=C(c2cc(NC(=O)C3CC3)nc3[nH]ccc23)CCN1C(=O)CC#N [Example 390, (S)—N-(4-(1-(2-cyanoacetyl)-6-methyl-1,2,3,6-tetrahydropyridin-4-yl)-1H-pyrrolo[2,3-b]pyridin-6-yl)cyclopropanecarboxamide] |
| 0.02 to 0.2 | C[C@H]1CC(c2cc(NC(=O)C3CC3)nc3[nH]ccc23)=CCN1C(=O)CC#N [Example 391, (S)—N-(4-(1-(2-cyanoacetyl)-2-methyl-1,2,3,6-tetrahydropyridin-4-yl)-1H-pyrrolo[2,3-b]pyridin-6-yl)cyclopropanecarboxamide] |

| Structure (SMILES) | IC50 [µM] |
| --- | --- |
| O=C(Nc1cc(C2=CC3CCCC(C2)N3C(=O)c2ccnc(F)c2)c2cc[nH]c2n1)C1CC1 (stereo not drawn) [Example 366, N-(4-(9-(2-fluoroisonicotinoyl)-9-azabicyclo[3.3.1]non-2-en-3-yl)-1H-pyrrolo[2,3-b]pyridin-6-yl)cyclopropanecarboxamide] | < 0.02 |
| O=C(Nc1cc(C2=CC3CCCC(C2)N3C(=O)c2ccnc(Cl)c2)c2cc[nH]c2n1)C1CC1 (stereo not drawn) [Example 367, N-(4-(9-(2-chloroisonicotinoyl)-9-azabicyclo[3.3.1]non-2-en-3-yl)-1H-pyrrolo[2,3-b]pyridin-6-yl)cyclopropanecarboxamide] | 0.02 to 0.2 |
| O=C(Nc1cc(C2=CC3CCCC(C2)N3C(=O)c2ccc(Cl)nc2)c2cc[nH]c2n1)C1CC1 (stereo not drawn) [Example 368, N-(4-(9-(6-chloronicotinoyl)-9-azabicyclo[3.3.1]non-2-en-3-yl)-1H-pyrrolo[2,3-b]pyridin-6-yl)cyclopropanecarboxamide] | < 0.02 |
| O=C(Nc1cc(C2=CC3CCCC(C2)N3C(=O)c2ccncc2F)c2cc[nH]c2n1)C1CC1 (stereo not drawn) [Example 369, N-(4-(9-(3-fluoroisonicotinoyl)-9-azabicyclo[3.3.1]non-2-en-3-yl)-1H-pyrrolo[2,3-b]pyridin-6-yl)cyclopropanecarboxamide] | 0.02 to 0.2 |
| O=C(Nc1cc(C2=CC3CCCC(C2)N3C(=O)c2ccc([N+](=O)[O-])cc2)c2cc[nH]c2n1)C1CC1 (stereo not drawn) [Example 370, N-(4-(9-(4-nitrobenzoyl)-9-azabicyclo[3.3.1]non-2-en-3-yl)-1H-pyrrolo[2,3-b]pyridin-6-yl)cyclopropanecarboxamide] | 0.02 to 0.2 |
| O=C(Nc1cc(C2=CC3CCCC(C2)N3C(=O)c2cccc(Br)c2)c2cc[nH]c2n1)C1CC1 (stereo not drawn) [Example 371, N-(4-(9-(3-bromobenzoyl)-9-azabicyclo[3.3.1]non-2-en-3-yl)-1H-pyrrolo[2,3-b]pyridin-6-yl)cyclopropanecarboxamide] | 0.02 to 0.2 |
